Laboratory results from US20070196866A1, “Modulators of ion channel trpa1” (IRM LLC, priority 2004, published 2007).
Several values for one entry are separate records, joined by “and”; a condition that tells them apart may be missing. Equal entries are not always repeated. Where two headings read alike, the source gives them in different places.

How the values were obtained:
mTRPA1 [1] = target: T1, mTRPA1 (Mus musculus, UniProt Q8BLA8); test: Ratiometric calcium imaging of CHO cells expressing mTRPA1; type: cell-based; conditions: for increase in intracellular free calcium: ratiometric calcium imaging
T1 construct: expressed in transfected cells; host or cells: CHO cells
T1 sequence (Q8BLA8 whole entry): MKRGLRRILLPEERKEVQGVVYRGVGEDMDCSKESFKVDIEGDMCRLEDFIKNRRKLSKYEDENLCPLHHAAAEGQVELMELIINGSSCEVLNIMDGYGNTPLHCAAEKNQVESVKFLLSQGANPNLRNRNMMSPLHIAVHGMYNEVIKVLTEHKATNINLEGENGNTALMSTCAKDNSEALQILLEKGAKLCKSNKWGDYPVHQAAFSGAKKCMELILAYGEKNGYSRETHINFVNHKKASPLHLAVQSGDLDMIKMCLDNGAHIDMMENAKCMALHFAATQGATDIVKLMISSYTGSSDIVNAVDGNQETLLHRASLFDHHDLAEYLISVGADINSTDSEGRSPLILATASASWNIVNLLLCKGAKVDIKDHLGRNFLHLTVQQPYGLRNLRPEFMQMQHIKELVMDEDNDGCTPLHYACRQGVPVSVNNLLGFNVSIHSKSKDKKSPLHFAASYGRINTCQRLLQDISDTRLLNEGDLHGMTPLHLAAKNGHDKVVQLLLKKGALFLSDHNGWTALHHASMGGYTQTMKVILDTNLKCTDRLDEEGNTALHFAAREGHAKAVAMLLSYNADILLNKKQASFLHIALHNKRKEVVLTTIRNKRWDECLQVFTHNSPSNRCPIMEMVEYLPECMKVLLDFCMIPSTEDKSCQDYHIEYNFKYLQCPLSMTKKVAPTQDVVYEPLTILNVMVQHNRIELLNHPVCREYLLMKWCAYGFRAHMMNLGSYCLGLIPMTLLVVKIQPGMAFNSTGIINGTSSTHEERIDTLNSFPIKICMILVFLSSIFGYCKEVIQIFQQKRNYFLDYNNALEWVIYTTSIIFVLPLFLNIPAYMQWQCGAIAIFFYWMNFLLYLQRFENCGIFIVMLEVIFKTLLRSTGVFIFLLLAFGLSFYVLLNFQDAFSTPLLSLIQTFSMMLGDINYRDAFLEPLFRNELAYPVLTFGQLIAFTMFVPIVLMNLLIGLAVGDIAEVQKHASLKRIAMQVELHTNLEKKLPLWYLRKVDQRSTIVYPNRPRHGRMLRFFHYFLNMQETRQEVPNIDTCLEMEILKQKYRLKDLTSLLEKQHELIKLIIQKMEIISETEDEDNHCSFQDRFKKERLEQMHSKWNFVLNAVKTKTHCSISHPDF

mTRPA1 [2] = target: T1, mTRPA1; test: Screen of cinnamaldehyde-like compounds in heterologous expression systems; type: cell-based; conditions: even in millimolar concentrations
[3] = Nociceptive behavior after intraplantar injection in mice; type: in vivo; conditions: for licking and shaking of the injected hindpaw: wildtype mice, intraplantar, five minutes post-injection, cinnamaldehyde 5 mM and 16.4 mM
mouse TRPA1 [4] = target: T2, mouse TRPA1 (Mus musculus, UniProt Q8BLA8); test: FLIPR intracellular calcium assay, mouse TRPA1-expressing CHO cells; type: cell-based; conditions: FLIPR; for increase in intracellular calcium upon application: mTRPA1 CHO cells; for EC50: mTRPA1
T2 construct: expressed in transfected cells; host or cells: CHO cells
T2 sequence (Q8BLA8 whole entry): as above

naïve CHO cells = test: Calcium response of naive CHO cells; type: cell-based; conditions: alone
From the text: Another downstream effect of PLC activity is the generation of Diacylglycerol (DAG). Therefore, we tested if l-Oleoyl-2-acetyl-sn-glycerol (OAG, a cell permeable analog of DAG) could activate TRPA1. […] OAG alone gives no response in naïve CHO cells. DAG can be converted to poly-unsaturated fatty acid (PUFAs) such as arachidonic acid (AA). […] AA can be converted to numerous metabolites, including prostaglandins. […] However, such a compound named 5,8,11,14-Eicosatetraynoic acid (ETYA) activated TRPA1- expressing CHO cells. Therefore, AA metabolism is not required for the activation of TRPA1.

[5] = system: B2R/TRPA1- expressing CHO cells; test: Calcium imaging of BK responses in B2R/TRPA1-expressing CHO cells; type: cell-based; conditions: 10 μM
From the text: (§1) We next tested if specific inhibition of PLC by U-73122 would affect TRPA1 activation by bradykinin. […] We then tested if PLC inhibition of TRPA1 was stimulus specific. […] We further tested the role of PLC inhibition on TRPM8.

TRPM8 = test: Calcium imaging of TRPM8-expressing CHO cells; type: cell-based
Protocol: We focused on the two mTRPA1-specific compounds. Using FLIPR, we determined the concentration for half maximal activation to be 61±9 μM for cinnamaldehyde and 22±3 μM for allyl isothiocyanate. […] Ruthenium red, a known blocker of mTRPA1, blocked the cinnamaldehyde response.
as §1

B2R-expressing cells = test: Calcium imaging of BK responses in B2R-expressing cells; type: cell-based; conditions: 10 μM
From the text: as §1

TRPV1 = test: Calcium imaging of TRPV1-expressing CHO cells; type: cell-based
adult rat DRG neurons = test: Calcium imaging of cultured adult rat DRG neurons; type: cell-based; conditions: 1.6 times the EC50
From the text: To further test this hypothesis, and to find out if the pungent compounds described above activate TRPA1 specifically, we performed calcium imaging of adult rat DRG neurons in response to cold, menthol, cinnamaldehyde, allyl isothiocyanate, and bradykinin. […] To a large extent, cinnamaldehyde and menthol activated mutually exclusive populations of cold-responsive neurons, as our model would predict. Allyl isothiocyanate appeared less specific as it activated 63% of the cold-responsive population (including a large overlap with menthol) and 12% of the cold-insensitive population. We have used 1.6 times the EC50 values of cinnamaldehyde and allyl isothiocyanate to enable us to directly compare DRG response profiles to these compounds. […] There were no significant differences in profiles of cinnamaldehyde and allyl isothiocyanate between cultures in the presence of 1 and 100 ng/ml of NGF.
In addition to the pungent sensory compounds, we have shown that BK can activate TRPA1.
To test if garlic extracts and allicin specifically activate TRPA1 in native neurons, we performed calcium imaging of adult rat DRG neurons. […] Addition of allicin or garlic extract to cultured rat DRG neurons activated a specific population of neurons.

TRPV4 = target: T3, TRPV4 (Homo sapiens, UniProt Q9HBA0); test: Calcium imaging of TRPV4-expressing CHO cells; type: cell-based
T3 construct: expressed in transfected cells; host or cells: CHO cells
T3 sequence (Q9HBA0 whole entry, species assumed): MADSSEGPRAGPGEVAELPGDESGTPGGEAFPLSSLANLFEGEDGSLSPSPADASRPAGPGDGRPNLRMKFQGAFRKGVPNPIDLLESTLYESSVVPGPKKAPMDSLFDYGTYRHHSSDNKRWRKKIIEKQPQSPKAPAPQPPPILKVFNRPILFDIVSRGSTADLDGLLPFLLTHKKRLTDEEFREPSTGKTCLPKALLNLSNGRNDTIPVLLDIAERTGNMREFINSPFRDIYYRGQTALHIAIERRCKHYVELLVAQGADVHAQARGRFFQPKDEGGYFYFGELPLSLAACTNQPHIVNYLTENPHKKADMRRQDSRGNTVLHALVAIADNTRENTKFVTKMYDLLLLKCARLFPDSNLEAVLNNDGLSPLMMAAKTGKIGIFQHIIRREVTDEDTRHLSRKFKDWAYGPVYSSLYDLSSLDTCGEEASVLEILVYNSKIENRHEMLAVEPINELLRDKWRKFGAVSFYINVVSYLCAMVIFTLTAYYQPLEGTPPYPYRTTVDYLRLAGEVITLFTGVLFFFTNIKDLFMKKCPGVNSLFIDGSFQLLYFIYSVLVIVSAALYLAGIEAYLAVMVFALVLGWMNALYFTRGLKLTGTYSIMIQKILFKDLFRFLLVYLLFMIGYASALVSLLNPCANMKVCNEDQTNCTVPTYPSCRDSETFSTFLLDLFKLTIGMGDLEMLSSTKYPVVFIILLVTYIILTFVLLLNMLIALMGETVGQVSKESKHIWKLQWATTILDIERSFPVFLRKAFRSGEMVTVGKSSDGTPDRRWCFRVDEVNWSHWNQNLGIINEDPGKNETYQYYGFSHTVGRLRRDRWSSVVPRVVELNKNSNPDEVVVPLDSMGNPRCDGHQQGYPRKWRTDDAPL

dTRPA1 (dANTKM1) = target: T4, dTRPA1 (dANTKM1) (Drosophila melanogaster, UniProt Q7Z020); test: Current recording in oocytes expressing dTRPA1; type: cell-based
T4 construct: expressed in transfected cells; host or cells: oocytes (Xenopus, from the preceding sentences)
T4 sequence (Q7Z020 1-1197): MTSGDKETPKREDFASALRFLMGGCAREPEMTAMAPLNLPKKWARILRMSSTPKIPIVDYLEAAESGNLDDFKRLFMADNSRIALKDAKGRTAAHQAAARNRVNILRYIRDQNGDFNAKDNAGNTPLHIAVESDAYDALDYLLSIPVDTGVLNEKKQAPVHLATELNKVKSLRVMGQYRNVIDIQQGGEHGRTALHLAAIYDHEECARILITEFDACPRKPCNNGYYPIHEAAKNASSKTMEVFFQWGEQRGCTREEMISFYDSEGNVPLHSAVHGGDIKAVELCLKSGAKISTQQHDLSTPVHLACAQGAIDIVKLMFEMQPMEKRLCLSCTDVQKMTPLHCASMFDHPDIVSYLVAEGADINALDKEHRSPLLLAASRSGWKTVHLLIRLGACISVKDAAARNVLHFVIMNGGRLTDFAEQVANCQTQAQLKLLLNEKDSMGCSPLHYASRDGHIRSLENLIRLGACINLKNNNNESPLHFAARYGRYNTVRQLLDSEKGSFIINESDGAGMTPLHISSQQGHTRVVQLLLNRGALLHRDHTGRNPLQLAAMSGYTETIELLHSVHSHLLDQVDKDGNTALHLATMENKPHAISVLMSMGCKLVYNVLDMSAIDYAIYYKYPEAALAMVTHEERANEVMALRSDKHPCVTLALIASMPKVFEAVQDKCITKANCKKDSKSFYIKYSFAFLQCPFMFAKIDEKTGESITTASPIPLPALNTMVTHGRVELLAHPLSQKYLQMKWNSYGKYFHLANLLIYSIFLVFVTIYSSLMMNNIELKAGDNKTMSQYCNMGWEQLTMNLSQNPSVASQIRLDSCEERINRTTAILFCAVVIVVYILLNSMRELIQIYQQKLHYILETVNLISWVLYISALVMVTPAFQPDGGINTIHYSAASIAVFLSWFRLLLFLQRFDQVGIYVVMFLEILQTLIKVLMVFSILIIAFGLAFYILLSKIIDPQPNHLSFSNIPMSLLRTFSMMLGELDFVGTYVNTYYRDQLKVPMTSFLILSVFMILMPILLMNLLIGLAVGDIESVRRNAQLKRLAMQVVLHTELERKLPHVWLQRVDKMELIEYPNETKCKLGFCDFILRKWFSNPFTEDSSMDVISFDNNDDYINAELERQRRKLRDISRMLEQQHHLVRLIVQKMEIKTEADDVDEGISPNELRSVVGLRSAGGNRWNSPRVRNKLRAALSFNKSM

human TRPA1 (hTRPA1) = target: T5, human TRPA1 (hTRPA1) (Homo sapiens, UniProt O75762); test: Current recording in Xenopus oocytes expressing human TRPA1; type: cell-based
T5 construct: expressed in transfected cells; host or cells: Xenopus oocytes
T5 sequence (O75762 whole entry): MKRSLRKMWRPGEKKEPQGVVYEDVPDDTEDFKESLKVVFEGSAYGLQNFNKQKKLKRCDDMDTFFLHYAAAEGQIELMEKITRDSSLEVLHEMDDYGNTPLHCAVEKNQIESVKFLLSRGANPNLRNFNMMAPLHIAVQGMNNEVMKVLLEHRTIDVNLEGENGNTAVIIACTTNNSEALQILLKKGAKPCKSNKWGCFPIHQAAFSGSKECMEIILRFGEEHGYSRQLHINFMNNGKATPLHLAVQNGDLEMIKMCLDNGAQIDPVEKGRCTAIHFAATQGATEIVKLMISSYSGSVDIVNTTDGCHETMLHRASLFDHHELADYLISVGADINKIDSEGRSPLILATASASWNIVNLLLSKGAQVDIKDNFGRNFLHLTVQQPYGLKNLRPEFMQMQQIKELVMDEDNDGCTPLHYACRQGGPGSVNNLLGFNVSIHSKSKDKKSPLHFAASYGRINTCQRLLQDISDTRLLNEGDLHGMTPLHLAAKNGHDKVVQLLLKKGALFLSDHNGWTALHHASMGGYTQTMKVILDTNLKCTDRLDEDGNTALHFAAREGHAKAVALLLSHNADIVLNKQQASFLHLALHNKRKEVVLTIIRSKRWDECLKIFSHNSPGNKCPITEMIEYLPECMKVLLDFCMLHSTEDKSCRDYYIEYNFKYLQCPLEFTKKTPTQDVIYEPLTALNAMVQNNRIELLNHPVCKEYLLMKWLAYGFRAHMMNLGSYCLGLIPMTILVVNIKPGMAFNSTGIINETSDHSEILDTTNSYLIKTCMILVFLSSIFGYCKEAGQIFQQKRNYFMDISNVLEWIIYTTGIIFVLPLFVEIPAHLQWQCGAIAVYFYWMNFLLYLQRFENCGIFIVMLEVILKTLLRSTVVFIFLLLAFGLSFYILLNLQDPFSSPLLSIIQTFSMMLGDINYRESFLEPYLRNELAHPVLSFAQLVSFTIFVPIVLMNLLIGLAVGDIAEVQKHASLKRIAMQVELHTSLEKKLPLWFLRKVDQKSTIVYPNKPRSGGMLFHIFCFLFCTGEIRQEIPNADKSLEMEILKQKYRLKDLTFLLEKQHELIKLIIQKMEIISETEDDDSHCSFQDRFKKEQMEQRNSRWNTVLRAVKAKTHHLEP
From the text: (§2) We also characterized the cinnamaldehyde-induced current in mTRPA1 expressing CHO cells. […] Expression of either mouse or human TRPA1 (hTRPA1) in Xenopus oocytes rendered these cells responsive to cinnamaldehyde as well as to cold temperatures. […] Indeed, the cinnamaldehyde-induced current from mTRPA1-expressing oocytes rarely returned to baseline, even after washing out the compound.
Increased currents by repeated application of cinnamaldehyde (sensitization) in oocyte recordings is in contrast to strong desensitization to cinnamaldehyde observed in mTRPA1-expressing CHO cell.

mouse TRPA1 [6] = target: T2, mouse TRPA1; test: Current recording in Xenopus oocytes expressing mouse TRPA1; type: cell-based
From the text: as §2

[7] = Paw withdrawal latency to heat (hyperalgesia) after intraplantar injection; type: in vivo, mice
Protocol: To provide further evidence of the role of TRPA1 in pain sensation, we investigated if cinnamaldehyde injections could lead to hyperalgesia, an increased response to pain due to sensitization often caused by inflammation or injury. […] In contrast, no significant difference could be observed between the latencies of the two paws when vehicle was injected.
Hyperalgesia to heat is thought to involve sensitization of TRPV1. […] Note that paw withdrawal latencies to heat are higher in TRPV1^−/− mice, consistent with the partial heat sensitivity phenotype of these mice (Caterina et al., Science 288: 306-313, 2000; and Davis et al., Nature 405: 183-187, 2000). Therefore, the acute nociceptive response of cinnamaldehyde is independent of TRPV1, while the heat hyperalgesia is mediated through TRPV1.

mTRPA1 [8] = target: T1, mTRPA1; test: Whole cell patch clamp of mTRPA1-expressing CHO cells; type: cell-based
From the text: as §2

TRPA1 = TRPA1 (Homo sapiens, UniProt O75762); test: Thapsigargin response of cells transiently transfected with hTRPA1 and YFP reporter; type: cell-based; parameters: expressed in transfected cells; conditions: same coverslip
Chain of TRPA1 (O75762 whole entry): as above
From the text: Phospholipase C (PLC) and phospholipase A2 are activated by BK signaling. Since many TRP channels are modulated by PLC activity, we tested whether downstream affectors of PLC can modulate TRPA1 function. One of the major consequences of PLC activation is the release of calcium from intracellular stores. We therefore tested if passive release of calcium from the stores with the […] endoplasmic reticulum Ca^2+-ATPase (SERCA) pump blocker thapsigargin could activate TRPA1 function. We examined the effect of thapsigargin on cells transiently-transfected with hTRPA1 and YFP reporter plasmid. This allowed for a direct comparison between TRPA1-expressing (YFP positive) and control (YFP negative) cells under the same experimental conditions (on the same coverslip).

CCCCC/C=C\C/C=C\C/C=C\C/C=C\CCCC(=O)O [AA, arachidonic acid]
activation of mTRPA1/TRPA1-expressing CHO cells (mTRPA1 [1]): activated

O=C(O)C=Cc1ccccc1 [Cinnamic acid, reference compound]
activation of mTRPA1 (mTRPA1 [2]): did not activate
licking and shaking of the injected hindpaw [3]: not observed

CCCCCC#CCC#CCC#CCC#CCCCC(=O)O [ETYA, 5,8,11,14-Eicosatetraynoic acid]
activation of mTRPA1/TRPA1-expressing CHO cells (mTRPA1 [1]): activated

C=CCc1ccc(O)c(OC)c1 [Eugenol]
increase in intracellular calcium upon application (mouse TRPA1 [4]): sharp increase in intracellular calcium

CCCCC[C@H](O)CC(=O)CCc1ccc(O)c(OC)c1 [Gingerol]
increase in intracellular calcium upon application (mouse TRPA1 [4]): sharp increase in intracellular calcium

CCCCCCCC/C=C\CCCCCCCC(=O)OC[C@H](CO)OC(C)=O [OAG, l-Oleoyl-2-acetyl-sn-glycerol]
activation of mTRPA1/TRPA1-expressing CHO cells (mTRPA1 [1]): robust response
response in naïve CHO cells (naïve CHO cells): no response

N.N.N.N.N.N.N.N.N.N.N.N.N.N.[Cl-].[Cl-].[Cl-].[Cl-].[Cl-].[Cl-].[O-2].[O-2].[Ru+3].[Ru+3].[Ru+4] [Ruthenium red]
block of AA activation (mTRPA1 [1]; stimulus AA): blocked
block of the OAG response (mTRPA1 [1]; stimulus OAG): blocked
block of the cinnamaldehyde response (mTRPA1 [1]; stimulus cinnamaldehyde): blocked

COc1ccc2c(c1)CC[C@@H]1[C@@H]2CC[C@]2(C)[C@@H](NCCCCCCN3C(=O)C=CC3=O)CC[C@@H]12 [U-73122]
inhibition of BK responses in B2R/TRPA1-expressing CHO cells [5]: inhibited
effect on TRPA1 activation by cinnamaldehyde (mTRPA1 [1]; stimulus cinnamaldehyde): inhibited
effect on TRPA1 activation by cold (mTRPA1 [1]; stimulus cold): strongly downregulated
effect on cold- and menthol-induced responses of TRPM8 (TRPM8; preincubation necessary for menthol block): strongly dowregulated
inhibition of BK responses in B2R-expressing cells (B2R-expressing cells): inhibited

COc1ccc2c(c1)CC[C@@H]1[C@@H]2CC[C@]2(C)[C@@H](NCCCCCCN3C(=O)CCC3=O)CC[C@@H]12 [U-73343]
inhibition of BK responses in B2R/TRPA1-expressing CHO cells [5]: not
inhibition of BK responses in B2R-expressing cells (B2R-expressing cells): not

C=CCN=C=S [allyl isothiocyanate]
activation of TRPV1-expressing CHO cells (TRPV1): did not activate
specificity to mTRPA1 when tested against TRPM8 and TRPV1 (mouse TRPA1 [4]): specific to mTRPA1
EC50 (mouse TRPA1 [4]; read-out: concentration for half maximal activation (EC50)): 22 ± 3 µM
increase in intracellular calcium upon application (mouse TRPA1 [4]): sharp increase in intracellular calcium
increase in intracellular free calcium (mTRPA1 [1]): robust increase in intracellular free calcium
activation of TRPM8-expressing CHO cells (TRPM8): did not activate
share of cold-activated (cold-responsive) DRG neurons activated (adult rat DRG neurons): 63%
share of cold-insensitive neurons activated (adult rat DRG neurons): 12%
activation of TRPV4-expressing CHO cells (TRPV4): did not activate

O=CC=Cc1ccccc1 [cinnamaldehyde]
activation of TRPV1-expressing CHO cells (TRPV1): did not activate
response of dTRPA1-expressing oocytes (dTRPA1 (dANTKM1)): did not respond
response of human TRPA1-expressing oocytes (human TRPA1 (hTRPA1)): responsive
current of second pulse relative to first pulse (human TRPA1 (hTRPA1); repeated applications, n=6): 250±23%
specificity to mTRPA1 when tested against TRPM8 and TRPV1 (mouse TRPA1 [4]): specific to mTRPA1
increase in intracellular calcium upon application (mouse TRPA1 [4]): sharp increase in intracellular calcium
EC50 (mouse TRPA1 [4]; concentration for half maximal activation (EC50)): 61 µM and ~61 µM
increase in intracellular free calcium (mTRPA1 [1]): robust increase in intracellular free calcium
activation of TRPM8-expressing CHO cells (TRPM8): did not activate
share of cold-activated (cold-responsive) DRG neurons activated (adult rat DRG neurons): 39%
share of cold-insensitive neurons activated (adult rat DRG neurons): 1%
activation of TRPV4-expressing CHO cells (TRPV4): did not activate
response of mouse TRPA1-expressing oocytes (mouse TRPA1 [6]): responsive
heat hyperalgesia ([7]; TRPV1−/− mice): absent
paw withdraw latency, injected compared to control paws ([7]; thirty minutes after injection, p=0.009): significantly lowered
response to injection ([3]; TRPV1−/− mice): responded
licking and shaking of the injected hindpaw [3]: induced licking and shaking of the injected hindpaw
elicited current (mTRPA1 [8]): robust desensitized current

C/C=C(/C)C(=O)O[C@H]1C(C)=C2[C@H]([C@@H]1OC(=O)CCCCCCC)[C@@](C)(OC(C)=O)C[C@H](OC(=O)CCC)[C@@]1(O)[C@H]2OC(=O)[C@@]1(C)O [thapsigargin]
response in YFP-positive (TRPA1-expressing) cells compared with control cells (TRPA1): slightly smaller than in YFP-negative cells
